Among the test systems are A549 NSCLC; DU-145 prostate; HCT-15 colon; K-562 leukemia; MDA-MB-231 breast; OVCAR-4 ovarian; PC-3 prostate; SN12C renal; UO-31 renal; HS 578T breast.
Experiment in all cases: NCI tumour cell line growth inhibition, 48 h

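Grown in 96-well plates, cells were treated for 48 hours with each compound at five concentrations. Insufficient inhibition: endpoint recorded as highest concentration tested. GI50 marks 50% less growth. TGI denotes the concentration required for complete inhibition of growth.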

Data on 15 compounds can be found in PubChem BioAssay (NCI).

Regarding `CC1(C)C=[N+]([O-])C(C)(C)N1O`, the TGI with A549 NSCLC, in the assay with DU-145 prostate, in the assay with HCT-15 colon, in the assay on K-562 leukemia, in the assay with MDA-MB-231 breast and with OVCAR-4 ovarian was more than 10 µM each time. The TGI in the assay on PC-3 prostate, in the assay with SN12C renal and with UO-31 renal was more than 10 µM each time.
In the case of `CC(C)(CN1CCCCC1)C(/C=C/c1ccccc1)=N\NC(=O)N/N=C(/C=C/c1ccccc1)C(C)(C)CN1CCCCC1`, the TGI in the assay with A549 NSCLC was determined as 6.12 µM; with HCT-15 colon it was 2.72 µM; in the assay on HS 578T breast, 5.92 µM; in the assay with K-562 leukemia, 2.81 µM; in the assay with MDA-MB-231 breast it was 2.81 µM; with OVCAR-4 ovarian it was 14.1 µM. The TGI with PC-3 prostate was found to be 7.7 µM; with SN12C renal it was 4.03 µM; in the assay with UO-31 renal it was 2.37 µM.
As to `O=c1c(O)cccn1C1OC(CO)C(O)C1O` (stereo not drawn), the TGI in the assay on A549 NSCLC, in the assay on HCT-15 colon, in the assay with K-562 leukemia, with OVCAR-4 ovarian, in the assay with SN12C renal and in the assay on UO-31 renal was more than 100 µM throughout.
Consider `O=c1oc2cccnc2n1CCCCN1CCN(c2ccccc2)CC1`, for which the TGI with A549 NSCLC, with DU-145 prostate, in the assay on HCT-15 colon, with HS 578T breast, in the assay with K-562 leukemia and in the assay on MDA-MB-231 breast was more than 100 µM throughout. Besides, the TGI with OVCAR-4 ovarian, in the assay on PC-3 prostate and in the assay with UO-31 renal was more than 100 µM throughout.
As for `O=[N+]([O-])c1ccc2c(c1)n1c(N3CCCC3)[n+]3ccccc3c1c1c3cccc[n+]3c(N3CCCC3)n21`, the TGI in the assay with A549 NSCLC was more than 100 µM; in the assay on DU-145 prostate, more than 100 µM; in the assay with HCT-15 colon, more than 100 µM; with HS 578T breast, more than 100 µM; with K-562 leukemia it was 88.2 µM; in the assay with MDA-MB-231 breast, more than 100 µM. The TGI in the assay on OVCAR-4 ovarian, with PC-3 prostate and in the assay on SN12C renal was more than 100 µM throughout.
In the case of `COC(=O)[C@@]1(C)CCC[C@]2(C(=O)O)C3Cc4occc4[C@H](C)[C@@H]3CCC21` (stereo partly drawn), the TGI was more than 100 µM with A549 NSCLC; more than 100 µM in the assay on DU-145 prostate; more than 100 µM with HS 578T breast; more than 100 µM in the assay with K-562 leukemia; more than 100 µM in the assay with MDA-MB-231 breast; 96.9 µM in the assay with PC-3 prostate. For the same compound, the TGI in the assay on SN12C renal and in the assay with UO-31 renal was more than 100 µM throughout.
Consider `O=C(NCCCCCCO)c1cccc2cc3ccccc3nc12`, for which the TGI is 31.5 µM in the assay on A549 NSCLC; 32 µM in the assay on DU-145 prostate; 48.6 µM in the assay on HCT-15 colon; 71.9 µM in the assay with HS 578T breast; more than 100 µM in the assay with K-562 leukemia; 40 µM with MDA-MB-231 breast. Moreover, the TGI is 66.2 µM with OVCAR-4 ovarian, 31.9 µM in the assay with PC-3 prostate and 49.5 µM with SN12C renal.
As to `Cc1nc2c(n1-c1ccccc1)C(=O)c1ccccc1C2=O`, the TGI with A549 NSCLC, in the assay on HCT-15 colon, with K-562 leukemia, in the assay on OVCAR-4 ovarian, with SN12C renal and with UO-31 renal was more than 100 µM in each case.
Regarding `NC(=S)NNC(=S)NC(=O)c1ccco1`, the TGI in the assay with A549 NSCLC, in the assay with DU-145 prostate, with HCT-15 colon, in the assay with HS 578T breast, in the assay on K-562 leukemia and in the assay on MDA-MB-231 breast was more than 10 µM each time. Further, the TGI with OVCAR-4 ovarian, in the assay on SN12C renal and in the assay on UO-31 renal was more than 10 µM throughout.
As for `COC(=O)[C@](C)(Cc1ccccc1)NC(=O)[C@@H](C)N1[C@@H](c2ccccc2)COC1(C)C`, the TGI in the assay on A549 NSCLC, in the assay with HCT-15 colon, in the assay on HS 578T breast, in the assay with K-562 leukemia, in the assay on MDA-MB-231 breast and in the assay on OVCAR-4 ovarian was more than 100 µM throughout. Moreover, the TGI in the assay on PC-3 prostate and in the assay with UO-31 renal was more than 100 µM each time.
In the case of `CS(=O)(=O)[O-].CS(=O)(=O)[O-].NC1CCCCC1N.[Pt+4]` (stereo not drawn), the GI50 in the assay on A549 NSCLC is 80.3 µM; in the assay with HCT-15 colon, more than 100 µM; with K-562 leukemia, 79.1 µM; with OVCAR-4 ovarian, more than 100000 nM; in the assay on SN12C renal it was more than 84.7 µM; in the assay with UO-31 renal it was more than 96.5 µM. For the same compound, the TGI in the assay with A549 NSCLC, in the assay on HCT-15 colon, in the assay with K-562 leukemia, in the assay on OVCAR-4 ovarian, with SN12C renal and in the assay on UO-31 renal was more than 100 µM each time.
Turning to `C[PH+](c1nc2ccccc2nc1[PH+](C)C(C)(C)C)C(C)(C)C.C[PH+](c1nc2ccccc2nc1[PH+](C)C(C)(C)C)C(C)(C)C.[Au+].[Cl-]` (stereo not drawn), the GI50 with DU-145 prostate is 40.1 nM; in the assay with HS 578T breast, 44.7 nM; with OVCAR-4 ovarian it was 34.9 nM; in the assay on PC-3 prostate it was 28.6 nM. Moreover, the TGI is 0.374 µM with DU-145 prostate, 1.75 µM with HS 578T breast, 0.77 µM in the assay with OVCAR-4 ovarian and 0.144 µM with PC-3 prostate.
`O=[N+]([O-])c1ccc2nc(/C=C(\O)c3ccc(Cl)cc3)c(/C=C(\O)c3ccc(Cl)cc3)nc2c1`: the TGI with A549 NSCLC, with DU-145 prostate, in the assay on HCT-15 colon, with K-562 leukemia, in the assay on MDA-MB-231 breast and in the assay on OVCAR-4 ovarian was more than 100 µM in each case. For the same compound, the TGI in the assay with PC-3 prostate, in the assay with SN12C renal and in the assay with UO-31 renal was more than 100 µM each time.
For `Cc1ccc(/C=C2/NC(=S)SC2=O)cc1`, the TGI in the assay with A549 NSCLC was more than 100 µM; in the assay on DU-145 prostate, more than 100 µM; in the assay on HCT-15 colon, 85.6 µM; with MDA-MB-231 breast, 83.4 µM; in the assay with OVCAR-4 ovarian it was more than 100 µM; in the assay with PC-3 prostate it was more than 100 µM. Also, the TGI in the assay with SN12C renal was more than 100 µM; in the assay on UO-31 renal, 93.1 µM.
Consider `O=C1c2ccccc2C(=O)c2nn(N=P(CP(=Nn3nc4c(n3)C(=O)c3ccccc3C4=O)(c3ccccc3)c3ccccc3)(c3ccccc3)c3ccccc3)nc21`, for which the TGI with A549 NSCLC, in the assay on DU-145 prostate, in the assay on HCT-15 colon, with HS 578T breast, in the assay on K-562 leukemia and with MDA-MB-231 breast was more than 100 µM each time. Further, the TGI in the assay with OVCAR-4 ovarian, in the assay with PC-3 prostate and with SN12C renal was more than 100 µM throughout.
